Test results: PMC7614683, “A small molecule PI3Kα activator for cardioprotection and neuroregeneration” (Nature, 2023)

Columns and labels:
human p110α/p85α (PI3Kα) = molecular target: T1, human p110α/p85α (PI3Kα) (Homo sapiens, UniProt P42336); test: ADP-Glo in vitro lipid kinase assay, PI3Kα; assay type: biochemical; details: for Maximum activity relative to 1938 / Maximum activity relative to pY control: SI Table 3; for EC50: SI Table 3, 1938 analogues, read-out: EC50; for reduction in activity: relative to 1938
T1 construct: Full-length human p110α was expressed either in a complex with full-length human p85α (for HTS, biochemistry and HDX-MS); 6xHis tag followed by TEV protease site (N); host or cells: Spodoptera frugiperda Sf9, baculovirus
Method: Kinase reactions were performed with ADP-Glo kinase assay kit (Promega Corporation). The enzyme, substrate and compounds were diluted in reaction buffer (20 mM HEPES, 50 mM NaCl, 50 mM KCl, 3 mM MgCl2, 1 mM EGTA, 1 mM TCEP, pH 7.4). Final concentrations of PI3Kα and PI3Kδ used were 25 nM and 50 nM for PI3Kβ. Liposomes (5% brain PI(4,5)P2, 20% brain phosphatidylserine, 45% brain phosphatidylethanolamine, 15% brain phosphatidylcholine, 10% cholesterol, 5% sphingomyelin (Avanti Polar Lipids)) were used at a final concentration of 1 mg/ml.
For the HTS, the reaction mixture contained 0.75 μl enzyme, 15 nl compound and/or pY and 0.75 μl of liposome substrate mixed with ATP. […] (GL Biochem, Shanghai Ltd). ATP was used at a final concentration of 500 μM unless otherwise stated. The final DMSO concentration in the assay was 1%. The experiments were performed at room temperature for 3 h using 1536-well white-polystyrene plates (Corning #3729) before addition of 2 μl of ADP-Glo R1 to terminate the reaction. The plate was incubated for 40 min, followed by addition of 4 μl of ADP-Glo R2 and incubated further for 60 min in the dark. Luminescence was read using an EnVision (PerkinElmer) plate reader. All analyses were performed using Genedata Screener.
For re-screening of HTS hits and routine compound profiling, the reaction mixture contained 2 μl PI3K enzyme, 2 μl compound and/or pY and 2 μl of liposome substrate mixed with ATP. ATP was used at a final concentration of 500 μM for PI3Kα and PI3Kβ and at 200 μM for PI3Kδ, unless otherwise stated. The final DMSO concentration in the assay was 1%. The experiments were performed at room temperature for 3 h using 384 white-polystyrene plates (Corning #3824) before addition of 6 μl of ADP-Glo R1 to terminate the reaction. The plate was incubated for 45 min, followed by addition of 12 μl of ADP-Glo R2 and incubated further for 60 min in the dark. Luminescence was read using a Sense (Hidex) plate reader. […] All analyses were performed using GraphPad Prism 7.
For characterisation of the effects of 1938 on in vitro PI3K enzymology, all reactions were performed at room temperature with 384 white-polystyrene plates (Corning #3574). The final DMSO concentration in the assay was between 0.5%-1.8%. The reaction mixture contained 2 μl PI3K enzyme, 2 μl compound and/or pY and 2 μl of liposome substrate mixed with ATP. ATP was used at a final concentration of 200 μM, unless otherwise stated.

PI3Kα-KO MEFs = test: pAKT S473 western blot, PI3Kα-KO MEFs; assay type: cell-based, mouse; details: TGX-221 0.2 μM
Method: Unless otherwise indicated, western blotting was performed with ECL detection. For time course studies, A549 cells were seeded at 250,000 cells per well in 6-well plates in RPMI (10% FBS + 1 mM Na-Pyruvate + 1% P/S) and allowed to adhere overnight. The next day they were serum-starved for 4 h prior to treatment with 100 nM insulin or 5 μM 1938, for the indicated time (5 min to 48 h) at 37°C, 5% CO2. For 1938 titration assays in MEFs, cells were seeded at 150,000 cells per well in 6-well plates and allowed to adhere overnight. The next day they were serum-starved for 4 h prior to treatment with insulin (1 μM), 1938 (0.2 to 30 μM, final DMSO concentration of 1.5%) or inhibitors (final DMSO concentration of ≤1.5%) for 15 min at 37°C, 5% CO2. Cells were washed twice with cold PBS and lysed using cold RIPA buffer (25 mM Tris.HCl pH 7.6, 150 mM NaCl, 1% NP-40, 1% sodium deoxycholate, 0.1% SDS supplemented with protease/phosphatase inhibitor cocktail from Merck). To remove cell debris, homogenates were spun at 13,000 rpm for 15 min at 4°C and the supernatant fraction recovered. Protein concentration was determined by colorimetric assay (BCA assay, Promega). Protein extracts were resolved by SDS-PAGE, transferred to nitrocellulose membranes, and incubated overnight at 4°C with specific antibodies as follows: anti-vinculin (Sigma #V9131) and the following antibodies from Cell Signaling Technology (CST): pAKT-S473 (CST #9271), pS6-S240/244 (CST #2215), pPRAS40-T246 (CST #2640) and total S6 (CST #2317). Primary ntibodies were used at 1:1000 dilution except anti-vinculin (1:10000). Secondary antibodies are also from Cell Signalling Technology: Anti rabbit IgG, HRP linked Antibody (CST #7074S), Anti mouse IgG, HRP linked Antibody (CST #7076S). Raw and uncropped blots are shown in Supplementary Fig. 1.

MEFs = test: Phosphoinositide quantification by mass spectrometry, MEFs; assay type: cell-based, mouse; details: 1938 at 5 μM, PDGF 20 ng/ml 2 min
Method: (§1) A549 cells (5.10^5) or wild-type MEFs (3.10^5) were plated in complete media onto 3.5 cm dishes or 60 mm dishes respectively for 24 h, prior to FCS-free starvation media for 16 h. MEFs, in addition, were supplemented with arachidonic acid in the FCS-free starvation media as previously described. […] Reactions were terminated in 600 μl ice-cold 1 M HCl and cells scraped and resuspended, then divided into two equal samples in eppendorfs. […] The data are shown as response ratios, calculated by normalizing the multiple reaction monitoring (MRM)-targeted lipid integrated response area to that of a known amount of relevant internal standard. To account for any cell input variability, PIP3 response ratios were normalized to C38:4-PI response ratios; while PI(3,4)P2 response ratios were normalised to PI(4,5)P2 response ratios. Data shown are mean ±SD for n ≥3, except for non-DMSO control in MEF PIP3 measurements where n=1.

A549 cells = test: Phosphoinositide quantification by mass spectrometry, A549; assay type: cell-based, human; details: A549, 2 min
Method: as §1

T1 sequence (P42336 whole entry): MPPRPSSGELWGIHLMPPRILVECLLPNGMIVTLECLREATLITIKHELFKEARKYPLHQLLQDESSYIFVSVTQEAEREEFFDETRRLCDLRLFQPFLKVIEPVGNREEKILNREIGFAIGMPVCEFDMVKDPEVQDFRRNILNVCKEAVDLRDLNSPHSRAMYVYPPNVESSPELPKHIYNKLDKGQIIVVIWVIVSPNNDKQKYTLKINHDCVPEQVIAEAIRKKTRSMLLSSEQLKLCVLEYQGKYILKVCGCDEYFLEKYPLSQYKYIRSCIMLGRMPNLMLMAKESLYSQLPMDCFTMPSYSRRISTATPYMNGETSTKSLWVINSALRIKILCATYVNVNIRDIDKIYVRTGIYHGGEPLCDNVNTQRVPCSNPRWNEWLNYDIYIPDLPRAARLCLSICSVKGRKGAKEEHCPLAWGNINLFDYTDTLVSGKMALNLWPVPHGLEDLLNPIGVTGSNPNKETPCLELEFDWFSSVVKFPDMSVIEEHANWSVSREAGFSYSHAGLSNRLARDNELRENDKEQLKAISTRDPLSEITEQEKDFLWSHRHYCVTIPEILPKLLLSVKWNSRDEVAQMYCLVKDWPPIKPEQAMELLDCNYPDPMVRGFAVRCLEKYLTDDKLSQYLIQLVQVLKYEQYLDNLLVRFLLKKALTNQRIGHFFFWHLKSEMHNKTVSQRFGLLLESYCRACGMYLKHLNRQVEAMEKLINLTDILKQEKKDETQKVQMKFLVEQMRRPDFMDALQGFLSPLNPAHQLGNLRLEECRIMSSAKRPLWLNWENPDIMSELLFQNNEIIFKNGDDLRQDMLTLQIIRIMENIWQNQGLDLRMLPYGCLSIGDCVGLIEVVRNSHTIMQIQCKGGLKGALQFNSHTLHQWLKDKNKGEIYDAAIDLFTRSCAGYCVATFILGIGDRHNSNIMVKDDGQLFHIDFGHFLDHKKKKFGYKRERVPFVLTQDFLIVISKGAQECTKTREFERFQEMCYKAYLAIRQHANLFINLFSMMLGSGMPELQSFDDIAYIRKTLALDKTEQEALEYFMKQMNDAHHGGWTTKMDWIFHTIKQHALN
T1 sequence (P27986 whole entry partner): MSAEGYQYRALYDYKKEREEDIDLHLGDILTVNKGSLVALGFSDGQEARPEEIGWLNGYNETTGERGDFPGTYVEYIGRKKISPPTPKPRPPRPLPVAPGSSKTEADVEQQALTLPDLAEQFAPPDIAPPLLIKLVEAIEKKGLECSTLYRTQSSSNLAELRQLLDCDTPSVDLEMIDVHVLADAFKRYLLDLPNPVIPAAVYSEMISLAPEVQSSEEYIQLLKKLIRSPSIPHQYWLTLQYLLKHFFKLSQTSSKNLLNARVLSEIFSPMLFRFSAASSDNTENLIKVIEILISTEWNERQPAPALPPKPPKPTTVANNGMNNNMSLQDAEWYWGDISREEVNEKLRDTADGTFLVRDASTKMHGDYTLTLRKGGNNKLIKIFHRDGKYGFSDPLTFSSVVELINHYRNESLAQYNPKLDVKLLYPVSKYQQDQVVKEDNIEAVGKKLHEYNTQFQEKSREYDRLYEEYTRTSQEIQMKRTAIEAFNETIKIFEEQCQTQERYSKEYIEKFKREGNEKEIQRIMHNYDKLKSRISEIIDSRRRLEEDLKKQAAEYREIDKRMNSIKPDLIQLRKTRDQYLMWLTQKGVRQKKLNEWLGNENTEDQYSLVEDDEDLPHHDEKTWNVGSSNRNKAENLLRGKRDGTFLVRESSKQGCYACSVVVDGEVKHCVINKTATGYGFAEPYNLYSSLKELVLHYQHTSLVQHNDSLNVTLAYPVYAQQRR

Maximum activity relative to 1938 (human p110α/p85α (PI3Kα)) [%] | Maximum activity relative to pY control (human p110α/p85α (PI3Kα)) [%] | Compound | also measured
80 | – | COc1cc(Nc2cc(Nc3cccc4c3N(C(C)=O)CC4)ccn2)cc(OC)c1OC [Compound 1887] | EC50 (human p110α/p85α (PI3Kα)): 36 ± 5 µM
4 | 14 ± 13 | CCN1CCN(c2ccc(Nc3cc(Nc4ccncn4)ccn3)cc2)CC1 [Compound 2106] | reduction in activity (human p110α/p85α (PI3Kα)): > 95%
– | – | Cc1cc(C(C)Nc2ccccc2)c2nc(N3CCOCC3)cc(=O)n2c1 (stereo not drawn) [TGX-221, reference compound] | effect on insulin-stimulated pAKT^S473 (PI3Kα-KO MEFs): sensitivity of insulin-stimulated pAKT^S473
9 | 36 ± 8 | CC(=O)N1CCc2cccc(Nc3ccnc(Nc4ccccc4)c3)c21 [Compound 2016] | –
4 | 16 ± 8 | CCN1CCN(c2ccc(Nc3nccc(Nc4cccc5c4N(C(C)=O)CC5)n3)cc2)CC1 [Compound 2152] | reduction in activity (human p110α/p85α (PI3Kα)): > 95%
102 | – | COc1cc(N2CCN(C)CC2)ccc1Nc1cc(Nc2cccc3c2N(C(C)=O)CC3)ccn1 [Compound 1889] | EC50 (human p110α/p85α (PI3Kα)): 56 ± 24 µM
– | – | PDGF | PI(3,4)P2 signal by mass spectrometry (MEFs): detected; PIP3 response (A549 cells): no PIP3 induced
